Results as given in ChEMBL document CHEMBL2380302, “Synthesis of 3-O-propargylated betulinic acid and its 1,2,3-triazoles as potential apoptotic agents” (Eur J Med Chem, 2013).

Tests used:
[1] = system: HCT-15; test: Cytotoxicity against human HCT15 cells at 10 uM after 48 hrs by SRB assay; assay type: functional; conditions: HCT-15, 48 h, read-out: GI
[2] = system: SF-295; test: Cytotoxicity against human SF295 cells at 30 uM after 48 hrs by SRB assay; assay type: functional; conditions: SF-295, 48 h, read-out: GI
[3] = system: HEp-2; test: Cytotoxicity against human Hep2 cells at 30 uM after 48 hrs by SRB assay; assay type: functional; conditions: HEp-2, 48 h, read-out: GI
[4] = system: A549; test: Cytotoxicity against human A549 cells at 50 uM after 48 hrs by SRB assay; assay type: functional; conditions: A549, 48 h, read-out: GI
[5] = system: MCF7; test: Cytotoxicity against human MCF7 cells at 30 uM after 48 hrs by SRB assay; assay type: functional; conditions: MCF7, 48 h, read-out: GI
[6] = system: A549; test: Cytotoxicity against human A549 cells after 48 hrs by SRB assay; assay type: functional, cell-based; conditions: A549, 48 h
[7] = system: DU-145; test: Cytotoxicity against human DU145 cells after 48 hrs by SRB assay; assay type: functional, cell-based; conditions: DU-145, 48 h
[8] = system: DU-145; test: Cytotoxicity against human DU145 cells at 50 uM after 48 hrs by SRB assay; assay type: functional; conditions: DU-145, 48 h, read-out: GI
[9] = system: HL-60; test: Cytotoxicity against human HL60 cells at 10 uM after 48 hrs by SRB assay; assay type: functional; conditions: HL-60, 48 h, read-out: GI
[10] = system: HL-60; test: Cytotoxicity against human HL60 cells at 30 uM after 48 hrs by SRB assay; assay type: functional; conditions: HL-60, 48 h, read-out: GI
[11] = system: HL-60; test: Cytotoxicity against human HL60 cells at 50 uM after 48 hrs by SRB assay; assay type: functional; conditions: HL-60, 48 h, read-out: GI
[12] = system: HCT-15; test: Cytotoxicity against human HCT15 cells at 50 uM after 48 hrs by SRB assay; assay type: functional; conditions: HCT-15, 48 h, read-out: GI
[13] = system: HCT-15; test: Cytotoxicity against human HCT15 cells at 30 uM after 48 hrs by SRB assay; assay type: functional; conditions: HCT-15, 48 h, read-out: GI
[14] = system: A549; test: Cytotoxicity against human A549 cells at 30 uM after 48 hrs by SRB assay; assay type: functional; conditions: A549, 48 h, read-out: GI
[15] = system: HL-60; test: Cytotoxicity against human HL60 cells after 48 hrs by SRB assay; assay type: functional, cell-based; conditions: HL-60, 48 h
[16] = system: THP-1; test: Cytotoxicity against human THP1 cells after 48 hrs by SRB assay; assay type: functional, cell-based; conditions: THP-1, 48 h
[17] = system: MCF7; test: Cytotoxicity against human MCF7 cells at 50 uM after 48 hrs by SRB assay; assay type: functional; conditions: MCF7, 48 h, read-out: GI
[18] = system: DU-145; test: Cytotoxicity against human DU145 cells at 10 uM after 48 hrs by SRB assay; assay type: functional; conditions: DU-145, 48 h, read-out: GI
[19] = system: SF-295; test: Cytotoxicity against human SF295 cells at 10 uM after 48 hrs by SRB assay; assay type: functional; conditions: SF-295, 48 h, read-out: GI
[20] = system: PC-3; test: Cytotoxicity against human PC3 cells at 50 uM after 48 hrs by SRB assay; assay type: functional; conditions: PC-3, 48 h, read-out: GI
[21] = system: A549; test: Cytotoxicity against human A549 cells at 10 uM after 48 hrs by SRB assay; assay type: functional; conditions: A549, 48 h, read-out: GI
[22] = system: MCF7; test: Cytotoxicity against human MCF7 cells at 10 uM after 48 hrs by SRB assay; assay type: functional; conditions: MCF7, 48 h, read-out: GI
[23] = system: MCF7; test: Cytotoxicity against human MCF7 cells after 48 hrs by SRB assay; assay type: functional, cell-based; conditions: MCF7, 48 h
[24] = system: DU-145; test: Cytotoxicity against human DU145 cells at 30 uM after 48 hrs by SRB assay; assay type: functional; conditions: DU-145, 48 h, read-out: GI
[25] = system: SF-295; test: Cytotoxicity against human SF295 cells at 50 uM after 48 hrs by SRB assay; assay type: functional; conditions: SF-295, 48 h, read-out: GI
[26] = system: THP-1; test: Cytotoxicity against human THP1 cells at 50 uM after 48 hrs by SRB assay; assay type: functional; conditions: THP-1, 48 h, read-out: GI
[27] = system: PC-3; test: Cytotoxicity against human PC3 cells at 30 uM after 48 hrs by SRB assay; assay type: functional; conditions: PC-3, 48 h, read-out: GI
[28] = system: PC-3; test: Cytotoxicity against human PC3 cells after 48 hrs by SRB assay; assay type: functional, cell-based; conditions: PC-3, 48 h
[29] = system: HEp-2; test: Cytotoxicity against human Hep2 cells at 50 uM after 48 hrs by SRB assay; assay type: functional; conditions: HEp-2, 48 h, read-out: GI
[30] = system: HEp-2; test: Cytotoxicity against human Hep2 cells after 48 hrs by SRB assay; assay type: functional, cell-based; conditions: HEp-2, 48 h
[31] = system: HCT-15; test: Cytotoxicity against human HCT15 cells after 48 hrs by SRB assay; assay type: functional, cell-based; conditions: HCT-15, 48 h
[32] = system: THP-1; test: Cytotoxicity against human THP1 cells at 30 uM after 48 hrs by SRB assay; assay type: functional; conditions: THP-1, 48 h, read-out: GI
[33] = system: SF-295; test: Cytotoxicity against human SF295 cells after 48 hrs by SRB assay; assay type: functional, cell-based; conditions: SF-295, 48 h
[34] = system: HEp-2; test: Cytotoxicity against human Hep2 cells at 10 uM after 48 hrs by SRB assay; assay type: functional; conditions: HEp-2, 48 h, read-out: GI
[35] = system: PC-3; test: Cytotoxicity against human PC3 cells at 10 uM after 48 hrs by SRB assay; assay type: functional; conditions: PC-3, 48 h, read-out: GI
[36] = system: THP-1; test: Cytotoxicity against human THP1 cells at 10 uM after 48 hrs by SRB assay; assay type: functional; conditions: THP-1, 48 h, read-out: GI

## C=C(C)[C@@H]1CC[C@]2(C(=O)O)CC[C@]3(C)[C@H](CC[C@@H]4[C@@]5(C)CC[C@H](OCc6cn(-c7ccc8c(c7)OCO8)nn6)C(C)(C)[C@@H]5CC[C@]43C)[C@@H]12
[1]
  inhibition of growth at 10 µM: 22%
[2]
  inhibition of growth at 30 µM: 55%
[3]
  inhibition of growth at 30 µM: 56%
[4]
  inhibition of growth at 50 µM: 40%
[5]
  inhibition of growth at 30 µM: 68%
[6]
  IC50: > 50 µM
[7]
  IC50: 30 µM
[8]
  inhibition of growth at 50 µM: 91%
[9]
  inhibition of growth at 10 µM: 41%
[10]
  inhibition of growth at 30 µM: 50%
[11]
  inhibition of growth at 50 µM: 61%
[12]
  inhibition of growth at 50 µM: 50%
[13]
  inhibition of growth at 30 µM: 36%
[14]
  inhibition of growth at 30 µM: 40%
[15]
  IC50: 30 µM
[16]
  IC50: 34 µM
[17]
  inhibition of growth at 50 µM: 82%
[18]
  inhibition of growth at 10 µM: 10%
[19]
  inhibition of growth at 10 µM: 36%
[20]
  inhibition of growth at 50 µM: 61%
[21]
  inhibition of growth at 10 µM: 22%
[22]
  inhibition of growth at 10 µM: 47%
[23]
  IC50: 13 µM
[24]
  inhibition of growth at 30 µM: 50%
[25]
  inhibition of growth at 50 µM: 65%
[26]
  inhibition of growth at 50 µM: 52%
[27]
  inhibition of growth at 30 µM: 32%
[28]
  IC50: 43 µM
[29]
  inhibition of growth at 50 µM: 67%
[30]
  IC50: 26 µM
[31]
  IC50: 50 µM
[32]
  inhibition of growth at 30 µM: 46%
[33]
  IC50: 18 µM
[34]
  inhibition of growth at 10 µM: 9%
[35]
  inhibition of growth at 10 µM: 2%
[36]
  inhibition of growth at 10 µM: 33%

## C=C(C)[C@@H]1CC[C@]2(C(=O)O)CC[C@]3(C)[C@H](CC[C@@H]4[C@@]5(C)CC[C@H](OCc6cn(-c7cc(C)cc(O)c7)nn6)C(C)(C)[C@@H]5CC[C@]43C)[C@@H]12
[1]
  inhibition of growth at 10 µM: 28%
[2]
  inhibition of growth at 30 µM: 75%
[3]
  inhibition of growth at 30 µM: 25%
[4]
  inhibition of growth at 50 µM: 71%
[5]
  inhibition of growth at 30 µM: 96%
[6]
  IC50: 26 µM
[7]
  IC50: 28 µM
[8]
  inhibition of growth at 50 µM: 97%
[9]
  inhibition of growth at 10 µM: 24%
[10]
  inhibition of growth at 30 µM: 90%
[11]
  inhibition of growth at 50 µM: 98%
[12]
  inhibition of growth at 50 µM: 66%
[13]
  inhibition of growth at 30 µM: 56%
[14]
  inhibition of growth at 30 µM: 59%
[15]
  IC50: 14 µM
[16]
  IC50: 18 µM
[17]
  inhibition of growth at 50 µM: 96%
[18]
  inhibition of growth at 10 µM: 10%
[19]
  inhibition of growth at 10 µM: 23%
[20]
  inhibition of growth at 50 µM: 91%
[21]
  inhibition of growth at 10 µM: 23%
[22]
  inhibition of growth at 10 µM: 70%
[23]
  IC50: 3.8 µM
[24]
  inhibition of growth at 30 µM: 51%
[25]
  inhibition of growth at 50 µM: 90%
[26]
  inhibition of growth at 50 µM: 99%
[27]
  inhibition of growth at 30 µM: 74%
[28]
  IC50: 13 µM
[29]
  inhibition of growth at 50 µM: 42%
[30]
  IC50: > 50 µM
[31]
  IC50: 26 µM
[32]
  inhibition of growth at 30 µM: 85%
[33]
  IC50: 19 µM
[34]
  inhibition of growth at 10 µM: 9%
[35]
  inhibition of growth at 10 µM: 47%
[36]
  inhibition of growth at 10 µM: 15%

## C=C(C)[C@@H]1CC[C@]2(C(=O)O)CC[C@]3(C)[C@H](CC[C@@H]4[C@@]5(C)CC[C@H](OCc6cn(-c7cccc(OC)c7)nn6)C(C)(C)[C@@H]5CC[C@]43C)[C@@H]12
[1]
  inhibition of growth at 10 µM: 23%
[2]
  inhibition of growth at 30 µM: 48%
[3]
  inhibition of growth at 30 µM: 56%
[4]
  inhibition of growth at 50 µM: 45%
[5]
  inhibition of growth at 30 µM: 59%
[6]
  IC50: > 50 µM
[7]
  IC50: > 50 µM
[8]
  inhibition of growth at 50 µM: 30%
[9]
  inhibition of growth at 10 µM: 20%
[10]
  inhibition of growth at 30 µM: 45%
[11]
  inhibition of growth at 50 µM: 60%
[12]
  inhibition of growth at 50 µM: 84%
[13]
  inhibition of growth at 30 µM: 53%
[14]
  inhibition of growth at 30 µM: 38%
[15]
  IC50: 37 µM
[16]
  IC50: 47 µM
[17]
  inhibition of growth at 50 µM: 75%
[18]
  inhibition of growth at 10 µM: 17%
[19]
  inhibition of growth at 10 µM: 15%
[20]
  inhibition of growth at 50 µM: 28%
[21]
  inhibition of growth at 10 µM: 34%
[22]
  inhibition of growth at 10 µM: 46%
[23]
  IC50: 12 µM
[24]
  inhibition of growth at 30 µM: 18%
[25]
  inhibition of growth at 50 µM: 55%
[26]
  inhibition of growth at 50 µM: 54%
[27]
  inhibition of growth at 30 µM: 10%
[28]
  IC50: > 50 µM
[29]
  inhibition of growth at 50 µM: 57%
[30]
  IC50: 29 µM
[31]
  IC50: 26 µM
[32]
  inhibition of growth at 30 µM: 41%
[33]
  IC50: 32 µM
[34]
  inhibition of growth at 10 µM: 30%
[35]
  inhibition of growth at 10 µM: 4%
[36]
  inhibition of growth at 10 µM: 17%
